According to patent US5190753A, “3-phenyl-5,6-dihydrobenziciacridine-7-carboxylic acids and related compounds as immunosuppressive agents” (Du Pont Merck Pharmaceutical Company, priority 1992, dated 1993):

Columns and labels:
[1] = system: contact sensitivity response to 2,4-dinitrofluorobenzene (DNFB) in Balb/c female mice; experiment: Contact sensitivity response to DNFB in mice (delayed-type hypersensitivity, ear swelling); type: in vivo
Method: Balb/c female mice (.perspectiveto. 20 g; Charles River) were sensitized on the shaved abdomen with 25 μl of 0.5% 2,4-dinitrofluorobenzene (DNFB, Eastman Kodak Co.) in a vehicle of 4:1 acetone:olive oil on days 0 and 1. Mice were ear challenged with 20 μl of 0.2% DNFB in a vehicle of 4:1 acetone:olive oil on day-5. An identical segment of the ear was measured immediately before challenge and 24 hours later with an engineer's micrometer. Ear swelling was expressed as the difference in ear thickness before and after challenge in units of 10^-4 inches ± SEM. Percent suppression was calculated as: [formula] Compounds were administered orally from day-2 through day-6 and were prepared in 0.25% Methocel® (Dow Chemical Co.). Control animals received only vehicle (0.25% Methocel®). Negative controls were not sensitized on days 0 and 1 but were ear challenged on day-5. Ten mice were used per group.
Contact sensitivity to DNFB is a form of delayed-type hypersensitivity which has been extensively studied to gain an understanding of the regulation of immunologic processes (Claman et al. (1980), Immunological Rev. 50:105-132). This reaction is mediated by T lymphocytes that become sensitized to antigen by proliferating and developing into mature effector cells (Claman et al. (1980), Immunological Rev. 50:105-132). This cell-mediated immune response (T-cell mediated immunity) is central to many disease states such as organ transplantation rejection and graft versus host disease (Benacerraf and Unanue (1979), Textbook of Immunology, Williams & Wilkins Co.; Eisen (1980), Immunology, An Introduction to Molecular and Cellular Principles of the Immune Responses, Harper & Row, Inc.; Loveland and McKenzie (1982), Immunology 46:313-320; Gallin et al. (1988), Inflammation, Basic Principles and Clinical Correlates, Raven Press). […]

[2] = system: human mixed lymphocyte reaction (peripheral blood mononuclear cells, PBMC); experiment: Human mixed lymphocyte reaction (3H-thymidine incorporation); type: cell-based
Method: Blood was obtained by venipuncture from two nonrelated human donors. Peripheral blood mononuclear cells (PBMC) were isolated from these samples by using the Leuco Prep procedure (Becton-Dickinson). PBMC were washed twice in phosphate buffered saline (without calcium and magnesium) and the separate cell isolations were adjusted to the appropriate concentrations in media (RPMI 1640) supplemented with 10% human AB serum and […] gentamicin. Cells from donor A (2×10^5) were incubated with cells from donor B (2×10^5) in 96 well round bottom microliter plates at 37° C., 5% CO2 for 6 days. Eighteen hours prior to harvesting cells from the plates, all wells were pulsed with 1 μCi of ^3 H-thymidine. Cells from the plates were harvested on day-6 and 3H-thymidine incorporation was determined using a scintillation counter.
The human mixed lymphocyte reaction model, is an in vitro model for transplantation rejection.

[3] = clinical use; cited from earlier work

Row | SMILES | % Suppression ([1]; 20.0 mg/kg orally, day-2 through day-6, of ear swelling) [%] | Ear Swelling (increase in ear thickness from day 5 to day 6) ([1]; 20.0 mg/kg orally, day-2 through day-6, units ± SEM, ten mice per group, 24 hours after challenge) | immunosuppressive activity (in words) ([1]; statement in words) | IC50 ([2]; Homo sapiens, Lymphocyte, 6 days incubation, 3H-thymidine pulse 18 hours prior to harvest) [nM] | human mixed lymphocyte reaction (in words) ([2]; statement in words, compared with CSA) | Significant clinically observed toxicities [3]
1 | O=C([O-])c1c2c(nc3ccc(F)cc13)-c1ccc(-c3ccccc3)cc1CC2.[Na+] [Example 12, 5,6-dihydro-9-fluoro-3-phenylbenz-[c]acridine-7-carboxylic acid, sodium salt] | 99.75 | 2.44 ± 1.62 10^-4 inches | have immunosuppressive activity | 65 | comparable to CSA | –
2 | Cn1cnc([N+](=O)[O-])c1Sc1ncnc2nc[nH]c12 [azathioprine] | – | – | – | – | – | hepatoxicity
